ChEMBL document CHEMBL2074355, “Biochemical mechanism of modulation of human P-glycoprotein (ABCB1) by curcumin I, II, and III purified from Turmeric powder” (Biochem Pharmacol, 2004)

What was measured:
Type in all cases: functional, cell-based
[1] = molecular target: T1, ATP-dependent translocase ABCB1 (Homo sapiens, UniProt P08183); experiment: TP_TRANSPORTER: increase in Rhodamine 123 intracellular accumulation in human KB-V1 cells
[2] = molecular target: T1, ATP-dependent translocase ABCB1; experiment: TP_TRANSPORTER: increase in Calcein-AM intracellular accumulation in human KB-V1 cells
[3] = molecular target: T1, ATP-dependent translocase ABCB1; experiment: TP_TRANSPORTER: increase in bodipy-FL-vinblastine intracellular accumulation in human KB-V1 cells

Measured: Activity

T1 sequence (P08183 whole entry): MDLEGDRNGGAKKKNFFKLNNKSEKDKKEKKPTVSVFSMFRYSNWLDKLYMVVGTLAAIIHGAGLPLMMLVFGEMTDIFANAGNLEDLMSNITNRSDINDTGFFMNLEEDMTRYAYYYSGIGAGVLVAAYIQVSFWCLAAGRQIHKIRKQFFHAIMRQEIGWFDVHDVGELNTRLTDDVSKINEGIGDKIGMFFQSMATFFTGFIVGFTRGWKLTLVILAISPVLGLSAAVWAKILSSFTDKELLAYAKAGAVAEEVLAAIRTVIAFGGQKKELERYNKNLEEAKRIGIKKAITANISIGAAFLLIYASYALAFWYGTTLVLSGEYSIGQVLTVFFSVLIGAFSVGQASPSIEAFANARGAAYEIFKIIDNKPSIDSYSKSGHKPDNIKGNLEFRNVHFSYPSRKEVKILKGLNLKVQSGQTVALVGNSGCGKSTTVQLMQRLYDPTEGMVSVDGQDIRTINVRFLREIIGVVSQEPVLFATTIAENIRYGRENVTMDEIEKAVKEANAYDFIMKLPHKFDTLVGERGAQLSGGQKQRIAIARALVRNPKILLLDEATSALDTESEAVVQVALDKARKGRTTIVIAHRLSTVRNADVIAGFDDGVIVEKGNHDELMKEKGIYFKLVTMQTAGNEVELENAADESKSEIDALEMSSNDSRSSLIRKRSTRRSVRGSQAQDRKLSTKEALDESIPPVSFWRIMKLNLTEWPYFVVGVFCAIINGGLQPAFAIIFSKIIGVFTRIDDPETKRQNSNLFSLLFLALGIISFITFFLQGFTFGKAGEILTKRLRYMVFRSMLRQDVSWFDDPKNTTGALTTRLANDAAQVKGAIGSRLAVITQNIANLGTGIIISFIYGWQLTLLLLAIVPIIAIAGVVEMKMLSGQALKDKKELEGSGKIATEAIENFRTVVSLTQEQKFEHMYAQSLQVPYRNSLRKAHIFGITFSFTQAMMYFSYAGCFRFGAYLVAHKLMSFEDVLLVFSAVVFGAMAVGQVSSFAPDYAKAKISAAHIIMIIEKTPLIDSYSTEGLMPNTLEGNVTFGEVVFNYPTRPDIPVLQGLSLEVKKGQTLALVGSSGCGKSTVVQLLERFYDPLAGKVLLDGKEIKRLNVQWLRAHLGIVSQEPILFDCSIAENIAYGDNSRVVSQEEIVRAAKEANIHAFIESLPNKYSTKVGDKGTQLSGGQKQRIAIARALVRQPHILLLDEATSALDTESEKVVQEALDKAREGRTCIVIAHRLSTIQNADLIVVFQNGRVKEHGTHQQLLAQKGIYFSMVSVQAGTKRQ

COc1cc(/C=C/C(=O)CC(=O)/C=C/c2ccc(O)c(OC)c2)ccc1O [CURCUMIN]
inhibitor [+]: all assays above
